Tests used:
H+/K+-ATPase = target: T1, H+/K+-ATPase (Sus scrofa, UniProt P19156); assay: Proton pump inhibitory action: activity of inhibiting H+/K+-ATPase (at pH 1); assay type: biochemical; conditions: pig gastric mucosa enzyme sample; test compounds pretreated in hydrochloric acid solution pH 1 (50% DMSO) for 15 minutes; read-out: Proton pump inhibitory action [IC50 (μmol/L)]
T1 construct: The mucous membrane layer was homogenized in Tris-HCl buffer; from tissue; host or cells: pig stomach body, mucous membrane layer, membrane fraction from a sucrose interface
T1 sequence (P19156 2-1034 limits assumed): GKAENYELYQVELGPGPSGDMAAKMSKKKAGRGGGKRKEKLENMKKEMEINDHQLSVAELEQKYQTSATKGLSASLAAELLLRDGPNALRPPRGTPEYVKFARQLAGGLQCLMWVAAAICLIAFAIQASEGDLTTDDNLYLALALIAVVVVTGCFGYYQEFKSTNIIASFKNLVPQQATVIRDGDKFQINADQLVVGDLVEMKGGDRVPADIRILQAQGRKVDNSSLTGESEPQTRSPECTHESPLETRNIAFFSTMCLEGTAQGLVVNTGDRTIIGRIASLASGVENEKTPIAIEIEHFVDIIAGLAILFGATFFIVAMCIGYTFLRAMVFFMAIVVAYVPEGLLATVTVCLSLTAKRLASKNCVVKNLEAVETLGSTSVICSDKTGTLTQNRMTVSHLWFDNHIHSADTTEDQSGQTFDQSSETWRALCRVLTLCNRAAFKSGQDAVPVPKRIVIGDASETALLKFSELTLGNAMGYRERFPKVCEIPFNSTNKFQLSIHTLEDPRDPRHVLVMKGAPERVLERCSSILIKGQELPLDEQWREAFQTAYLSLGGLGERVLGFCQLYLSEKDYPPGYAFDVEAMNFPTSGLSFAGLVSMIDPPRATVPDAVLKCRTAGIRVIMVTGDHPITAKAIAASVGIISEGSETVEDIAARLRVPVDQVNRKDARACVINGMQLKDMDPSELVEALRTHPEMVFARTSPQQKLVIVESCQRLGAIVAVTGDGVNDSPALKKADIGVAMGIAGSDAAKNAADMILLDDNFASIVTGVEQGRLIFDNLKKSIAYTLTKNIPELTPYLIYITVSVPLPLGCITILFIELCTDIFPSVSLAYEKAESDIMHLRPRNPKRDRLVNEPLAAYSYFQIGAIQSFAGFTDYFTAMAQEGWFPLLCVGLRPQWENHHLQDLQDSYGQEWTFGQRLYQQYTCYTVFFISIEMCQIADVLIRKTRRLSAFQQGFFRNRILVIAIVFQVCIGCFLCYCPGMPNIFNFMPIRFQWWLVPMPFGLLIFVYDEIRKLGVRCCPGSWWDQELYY
T1 sequence (P18434 whole entry partner): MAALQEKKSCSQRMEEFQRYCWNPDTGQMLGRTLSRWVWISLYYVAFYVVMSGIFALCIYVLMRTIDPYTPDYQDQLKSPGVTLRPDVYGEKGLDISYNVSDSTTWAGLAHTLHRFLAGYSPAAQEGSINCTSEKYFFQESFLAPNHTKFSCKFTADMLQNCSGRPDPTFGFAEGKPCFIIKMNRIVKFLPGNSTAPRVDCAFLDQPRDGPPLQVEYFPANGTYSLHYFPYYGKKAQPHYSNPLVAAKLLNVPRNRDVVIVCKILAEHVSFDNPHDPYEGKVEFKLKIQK
Source text: (Proton Pump Inhibitory Action)
(1) Preparation of Enzyme Sample (H^+/K^+-ATPase)
The stomach body removed from a pig, which had been stored in a frozen state, was separated into a muscle layer and a mucous membrane layer. The mucous membrane layer was homogenized in Tris-HCl buffer (20 mmol/L, pH 7.4) having a volume 5 times that of the layer and containing sucrose (0.25 mol/L) and EGTA (1 mmol/L) (hereinafter the mixture is referred to as Tris-HCl buffer) in a mixer. The homogenate was subjected to centrifugation (9,000×g, 30 minutes). The supernatant was softly placed on 8 mL Tris-HCl buffer (20 mmol/L, pH 7.4) containing 30% sucrose and 1 mmol/L EGTA. The mixture was subjected to ultracentrifugation at 100,000×g for 60 minutes. The interface fraction obtained through centrifugation was subjected to centrifugation (113,000×g, 60 minutes) twice. Pellet was suspended in Tris-HCl buffer, and the suspension was homogenized at low speed. The resultant homogenate served as an enzyme sample of interest and was stored at −80° C. The protein content of the sample was quantitated through use of a BCA protein assay reagent in accordance with a method described by Smith et al. (Anal. Biochem., 150, 76-85 (1985)). All these steps were performed under cooling with an ice bath.
(2) Activity of inhibiting H^+/K^+-ATPase (at pH 1)
Activity of inhibiting H^+/K^+-ATPase was measured in accordance with a method described in Biochem. Biophys. Res. Commun., 40, 880-886 (1970). Specifically, ATP was employed as a substrate, and inorganic phosphate, which is a resultant degradation product, was quantitated. In consideration of the solubility of test compounds, the test compounds were preliminarily treated with a hydrochloric acid solution (containing 50% DMSO, 1×10^−1 mol/L, pH 1). Each of the test compounds having different concentrations was added to the hydrochloric acid solution to thereby yield a 1,000—fold dilution, and thereafter, the diluted compound was allowed to stand for 15 minutes at room temperature. After these preliminary remedies, a 10 μL solution that had undergone the above preliminary remedies were added to 840 μL Tris-acetate buffer (40 mmol/L, pH 7.5, containing 2 mmol/L MgCl2, may be referred to as TE buffer) containing or not containing 20 mmol/L KCl. Subsequently, a 100 μL enzyme solution (5 μg protein) diluted with the TE buffer was added. Incubation was performed for 30 minutes at 37° C. Thereafter, a 50 μL ATP solution (40 mmol/L) which was dissolved in TE buffer not containing KCl was added to initiate enzyme reaction (total volume: 1 mL, ATP final concentration: 2 mmol/L). Incubation was performed for 30 minutes at 37° C. Subsequently, ice-cold 12% trichloroacetic acid (2 mL) was added, to thereby stop the enzyme reaction. A molybdenum reagent (1 mL, 3.75% ammonium molybdate/1.5 mol/L sulfuric acid) and butyl acetate (5 mL) were added, followed by mixing under vigorous shaking for 5 minutes. The absorption of the butyl acetate layer was measured at 310 nm. A standard curve was determined on the basis of absorption obtained through the similar procedure by use of KH2PO4 at different concentrations dissolved in 8% TCA solution, and inorganic phosphate content was calculated. Samples to be measured were prepared in duplicate. The measurements were averaged, and residual activity was obtained from the difference between the inorganic phosphate content as determined in a sample containing KCl and that as determined in a sample not containing KCl. Percentage inhibition activity was calculated with respect to the activity obtained from a control sample (DMSO), which was considered 100%. As the inhibitory potency of each test compound, IC50 values were computed and shown. All the test compounds were dissolved in dimethyl sulfoxide immediately before use.

CYP2C19 = target: T2, CYP2C19 (Homo sapiens, UniProt P33261); assay: Human CYP2C19 activity inhibition test (S-(+)-mephenytoin to 4'-hydroxymephenytoin); assay type: in vitro ADME; conditions: human, pH 7.4, probe S-(+)-mephenytoin (to 4'-hydroxymephenytoin), test compound 10 μM; human CYP2C19 yeast expression system microsome; 4'-hydroxymephenytoin generated vs control; read-out: CYP2C19 residual activity (%)
T2 construct: purchased Sumitomo Chemical Co., Ltd; host or cells: yeast (microsomes)
T2 sequence (P33261 whole entry): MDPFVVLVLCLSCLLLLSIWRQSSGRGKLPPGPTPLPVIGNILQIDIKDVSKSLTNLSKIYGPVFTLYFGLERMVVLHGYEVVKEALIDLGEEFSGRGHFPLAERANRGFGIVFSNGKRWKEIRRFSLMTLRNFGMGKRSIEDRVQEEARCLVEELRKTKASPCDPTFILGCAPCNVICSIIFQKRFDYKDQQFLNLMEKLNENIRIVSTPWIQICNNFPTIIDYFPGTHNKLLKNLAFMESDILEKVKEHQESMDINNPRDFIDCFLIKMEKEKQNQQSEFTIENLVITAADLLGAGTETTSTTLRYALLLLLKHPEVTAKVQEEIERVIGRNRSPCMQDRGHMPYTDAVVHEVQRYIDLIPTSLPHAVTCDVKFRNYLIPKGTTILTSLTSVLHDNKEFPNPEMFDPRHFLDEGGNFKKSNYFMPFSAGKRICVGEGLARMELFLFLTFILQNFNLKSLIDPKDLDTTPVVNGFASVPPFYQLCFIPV
Experimental: (Human CYP2C19 Activity Inhibition Test)
CYP2C19 specifically participates in the metabolism reaction from S-(+)-mephenytoin to 4′-hydroxymephenytoin. Therefore, by use of an expression system CYP2C19, the production amount (concentration) of 4′-hydroxymephenytoin, serving as an index for CYP2C19 activity, was determined, whereby the inhibitory action of respective test substances was investigated.
(a) Metabolizing Activity Test
A solution of S-(+)-mephenytoin in methanol (125 μmol/L, 50 μL) and a solution of a test substance in methanol (25 μmol/L, 0, 10, 100, or 200 μL) were placed in a 10-mL glass test tube. The solvent was removed under a nitrogen gas at 40° C. A 75 μL mixture of 0.5M phosphate buffer (pH 7.4)-0.5 mM EDTA (20:10), 140 μL purified water, and 10 μL human CYP2C19 yeast expression system microsome (purchased from Sumitomo Chemical Co., Ltd.) were added.
Incubation was performed for 10 minutes at 37° C. Subsequently, aqueous 12% perchloric acid solution (50 μL) was added, to thereby stop the reaction.
After the reaction was stopped, an internal standard substance (I.S.) methyl p-hydroxybenzoate (100 μg/ mL, 50 μL), and diethyl ether (2 mL) were added. The mixture was shaken for 10 minutes, followed by centrifugation at 3,000 rpm for 10 minutes. The organic layer was separated, and the solvent was removed under a nitrogen gas at 40° C. The residue was dissolved in a 200 μL mobile phase, and the mixture was subjected to analysis by high performance liquid chromatography (HPLC).
In order to generate a calibration curve, the general procedure of the above process was repeated by use of 4′-hydroxymephenytoin solution instead of the S-(+)-mephenytoin solution. Quantitation was performed on the basis of the peak area ratio of 4′-hydroxymephenytoin to I.S. The amount of 4′-hydroxymephenytoin generated in the control sample was compared with that generated in the present of a test compound, and the results of comparison were used as an activity index.
HPLC was performed under the conditions described below (HPLC conditions A or HPLC conditions B).

| SMILES | IC50 (H+/K+-ATPase) [µmol/L] | activity at 10 min, 10 µM (CYP2C19) [%] |
| --- | --- | --- |
| [O-][S+](Cc1cc(OCCCC(F)(F)F)ccn1)c1nc2ccccc2[nH]1 (stereo not drawn) [Example 9(3), 2-[4-(4,4,4-trifluorobutoxy)pyridin-2-yl-methanesulfinyl]-1H-benzimidazole] | 3.56 | 76.1 |
| COCCCOc1ccnc(C[S+]([O-])c2nc3ccccc3[nH]2)c1C (stereo not drawn) [rabeprazole, reference compound] | 1.61 | 39.8 |
| COc1ccc2nc([S@@+]([O-])Cc3ncc(C)c(OC)c3C)[nH]c2c1 [esomeprazole, reference compound] | 2.06 | 35.4 |
| Cc1c(OCC(F)(F)F)ccnc1C[S+]([O-])c1nc2ccccc2[nH]1 (stereo not drawn) [lansoprazole, reference compound] | 1.61 | 8.7 |
| COc1c(OCCOCC(F)(F)F)ccnc1C[S+]([O-])c1nc2ccccc2[nH]1 (stereo not drawn) [Example 2(2), 2-{3-methoxy-4-[2-(2,2,2-trifluoroethoxy)ethoxy]pyridin-2-yl-methylsulfinyl}-1H-benzimidazole] | 3.37 | 66.5 |
| [O-][S+](Cc1cc(OCCCC(F)(F)F)ccn1)c1nc2ccccc2[nH]1 (single isomer, unassigned; (-)) [Example 10(2), (−)-2-[4-(4,4,4-trifluorobutoxy)pyridin-2-yl-methanesulfinyl]-1H-benzimidazole] | 3.03 | 89.4 |
| COc1ccnc(C[S+]([O-])c2nc3ccc(OC(F)F)cc3[nH]2)c1OC (stereo not drawn) [pantoprazole, reference compound] | 5.46 | 33.1 |
| COc1c(OCCOCC(F)(F)F)ccnc1C[S+]([O-])c1nc2ccccc2[nH]1 (single isomer, unassigned; (+)) [Example 3(2), (+)-2-{3-methoxy-4-[2-(2,2,2-trifluoroethoxy)ethoxy]pyridin-2-yl-methylsulfinyl}-1H-benzimidazole] | 4.05 | 98.3 |
| COc1ccc2[nH]c([S+]([O-])Cc3ncc(C)c(OC)c3C)nc2c1 (stereo not drawn) [omeprazole, reference compound] | 1.01 | 18.4 |
| COc1c(OCCCC(F)(F)F)ccnc1C[S+]([O-])c1nc2ccccc2[nH]1 (single isomer, unassigned; (-)) [Example 6(1), (−)-2-[3-methoxy-4-(4,4,4-trifluorobutoxy)pyridin-2-yl-methanesulfinyl]-1H-benzimidazole] | 2.5 | 66.4 |
| COc1c(OCCCC(F)(F)F)ccnc1C[S+]([O-])c1nc2ccccc2[nH]1 (stereo not drawn) [Example 1(2), 2-[3-methoxy-4-(4,4,4-trifluorobutoxy)pyridin-2-yl-methylsulfinyl]-1H-benzimidazole] | 4.16 | 71.2 |
| [O-][S+](Cc1cc(OCCOCC(F)(F)F)ccn1)c1nc2ccccc2[nH]1 (single isomer, unassigned; (-)) [Example 13(3), (−)-2-{4-[2-(2,2,2-trifluoroethoxy)ethoxy]pyridin-2-yl-methanesulfinyl}-1H-benzimidazole] | 7.37 | 98.6 |

From patent US6884810B2, “Benzimidazole derivatives” (Zeria Pharmaceutical Co., Ltd., priority 2001, dated 2005)
